Results reported in paper PMC12069643, “Structural insights into the selective recognition of RF-amide peptides by neuropeptide FF receptor 2” (EMBO Reports, 2025).

Assays:
Assay in all cases: GloSensor forskolin-stimulated cAMP assay, NPFFR2 mutants
Format in all cases: cell-based
[1] = molecular target: T1, NPFFR2 mutants (Homo sapiens, UniProt Q9Y5X5, E289A); conditions: NPFFR2 E187ECL2A, HEK293T, three independent experiments
T1 construct: expressed in transfected cells; host or cells: HEK293T (pcDNA3.1 NPFFR2 mutants)
Excerpt: (§1) Figure 2 Interaction of hNPSF with NPFFR2. (A) Residues participating in the interactions between hNPSF and NPFFR2 in the transmembrane (TM) binding pocket are shown as sticks. Dashed lines indicate polar interactions and hydrogen bonds between residues. Zoomed-in views highlighting interactions of the C-terminal segment (residues −1 to −4, PQRF), middle segment (residues −5 to −8, FLFQ), and the N-terminal segment (residues −9 to −11, SQA) of hNPSF are enclosed in red, blue, and yellow boxes, respectively. (B) NPFFR2 residues interacting with hNPSF were mutated to alanine, and the impact of each mutation on the EC50 value (ΔpEC50) was investigated using a forskolin-stimulated cAMP assay, after confirming surface expression of each mutant by an ELISA-based surface expression assay (Appendix Fig. S5). Three independent experiments (with technical triplicates) were conducted for each mutant. The bar graphs represent the mean of ΔpEC50 values from each experiment, with error bars indicating SEM. Statistical analyses were performed using ordinary one-way ANOVA followed by Dunnett’s test, comparing to the wild-type response. ns (not significant, P > 0.05); *P < 0.05; **P < 0.01; ***P < 0.001. Source data are available online for this figure.
(§2) HEK293T cells were seeded at a density of 6 × 10^5 cells per well in a six-well cell culture plate (SPL) and co-transfected with expression plasmids encoding GloSensor™ and each NPFFR construct, using 1 µg to 4 µg of DNA per well according to the Lipofectamine™ 2000 Transfection Reagent (Invitrogen) protocol. After 48 h of incubation under standard conditions (37 °C, 5% CO2), the cells were detached using Accutase solution (Sigma-Aldrich) and washed with PBS. The cells were then pelleted by centrifugation, resuspended in CO2-independent medium (Gibco) supplemented with Firefly D-Luciferin (0.5 mg/ml, NanoLight), and distributed into a 96-well white plate (SPL). After a 2-hour incubation, serially diluted ligands and 0.5 μM forskolin were added to each well to detect ligand-induced signaling. Luminescence signals were measured using a Mithras LB940 instrument (Berthold) with a measurement time of 1 s per well.
(§3) Data from the GloSensor^TM cAMP signaling assays were analyzed using GraphPad Prism with a three-parameter logistic model to fit concentration-response curves for both wild-type (WT) and mutant receptors. Mutant expression levels and DNA amounts were adjusted to match WT conditions. ΔpEC50 values were calculated by subtracting the log EC50 of the WT receptor from that of each mutant. Results are presented as mean ± SEM from three independent biological replicates, each performed in duplicate or more. Error bars represent the SEM. Statistical significance was assessed using one-way ANOVA, followed by Dunnett’s tests comparisons to the WT receptor. Significance levels were reported as follows: ns (not significant, P > 0.05); *P < 0.05; **P < 0.01; ***P < 0.001.
(§4) Appendix Figure S5. GloSensorTM cAMP assays of mutants and wild-type NPFFR2.
(§5) The dose-response of cAMP assay data for each mutant (red) presented in Fig. 2B are compared against the wild-type NPFFR2 (blue). Each experiment was conducted after adjusting the mutant's expression level to that of the wild-type NPFFR2 (Appendix Fig. S3), and pcDNA3.1 was used to match the total amount of DNA transfected. Data points represent mean values from three independent experiments (each with technical triplicate), with error bars indicating SEM. Raw data were normalized to the vehicle -treated (0%) and 0.5 μM forskolin-treated (100%) responses.
(§6) (% of forskolin stimulation) […]

[2] = molecular target: T2, NPFFR2 mutants (Homo sapiens, UniProt Q9Y5X5, E310A); conditions: NPFFR2 E20845.52A, HEK293T, three independent experiments
T2 construct: expressed in transfected cells; host or cells: HEK293T (pcDNA3.1 NPFFR2 mutants)
Excerpt: as §1, §2, §3, §4, §5, §6

[3] = molecular target: T3, NPFFR2 mutants (Homo sapiens, UniProt Q9Y5X5, F425A); conditions: NPFFR2 F3237.43A, HEK293T, three independent experiments
T3 construct: expressed in transfected cells; host or cells: HEK293T (pcDNA3.1 NPFFR2 mutants)
Excerpt: as §1, §2, §3, §4, §5, §6

[4] = molecular target: T4, NPFFR2 mutants (Homo sapiens, UniProt Q9Y5X5, H421A); conditions: NPFFR2 H3197.39A, HEK293T, three independent experiments
T4 construct: expressed in transfected cells; host or cells: HEK293T (pcDNA3.1 NPFFR2 mutants)
Excerpt: as §1, §2, §3, §4, §5, §6

[5] = molecular target: T5, NPFFR2 mutants (Homo sapiens, UniProt Q9Y5X5, I414A); conditions: NPFFR2 I3127.32A, HEK293T, three independent experiments
T5 construct: expressed in transfected cells; host or cells: HEK293T (pcDNA3.1 NPFFR2 mutants)
Excerpt: as §1, §2, §3, §4, §5, §6

[6] = molecular target: T6, NPFFR2 mutants (Homo sapiens, UniProt Q9Y5X5, L141A); conditions: NPFFR2 L39NtA, HEK293T, three independent experiments
T6 construct: expressed in transfected cells; host or cells: HEK293T (pcDNA3.1 NPFFR2 mutants)
Excerpt: as §1, §2, §3, §4, §5, §6

[7] = molecular target: T7, NPFFR2 mutants (Homo sapiens, UniProt Q9Y5X5, N413A); conditions: NPFFR2 N3117.31A, HEK293T, three independent experiments
T7 construct: expressed in transfected cells; host or cells: HEK293T (pcDNA3.1 NPFFR2 mutants)
Excerpt: as §1, §2, §3, §4, §5, §6

[8] = molecular target: T8, NPFFR2 mutants (Homo sapiens, UniProt Q9Y5X5, T322A); conditions: NPFFR2 T2205.39A, HEK293T, three independent experiments
T8 construct: expressed in transfected cells; host or cells: HEK293T (pcDNA3.1 NPFFR2 mutants)
Excerpt: as §1, §2, §3, §4, §5, §6

[9] = molecular target: T9, NPFFR2 mutants (Homo sapiens, UniProt Q9Y5X5, V305A); conditions: NPFFR2 V203ECL2A, HEK293T, three independent experiments
T9 construct: expressed in transfected cells; host or cells: HEK293T (pcDNA3.1 NPFFR2 mutants)
Excerpt: as §1, §2, §3, §4, §5, §6

[10] = molecular target: T10, NPFFR2 mutants (Homo sapiens, UniProt Q9Y5X5, W393A); conditions: NPFFR2 W2916.52A, HEK293T, three independent experiments
T10 construct: expressed in transfected cells; host or cells: HEK293T (pcDNA3.1 NPFFR2 mutants)
Excerpt: as §1, §2, §3, §4, §5, §6

[11] = molecular target: T11, NPFFR2 mutants (Homo sapiens, UniProt Q9Y5X5, Y321A); conditions: NPFFR2 Y2195.38A, HEK293T, three independent experiments
T11 construct: expressed in transfected cells; host or cells: HEK293T (pcDNA3.1 NPFFR2 mutants)
Excerpt: as §1, §2, §3, §4, §5, §6

[12] = molecular target: T12, NPFFR2 mutants (Homo sapiens, UniProt Q9Y5X5, Y417A); conditions: NPFFR2 Y3157.35A, HEK293T, three independent experiments
T12 construct: expressed in transfected cells; host or cells: HEK293T (pcDNA3.1 NPFFR2 mutants)
Excerpt: as §1, §2, §3, §4, §5, §6

T6 sequence (Q9Y5X5 103-522 L141A): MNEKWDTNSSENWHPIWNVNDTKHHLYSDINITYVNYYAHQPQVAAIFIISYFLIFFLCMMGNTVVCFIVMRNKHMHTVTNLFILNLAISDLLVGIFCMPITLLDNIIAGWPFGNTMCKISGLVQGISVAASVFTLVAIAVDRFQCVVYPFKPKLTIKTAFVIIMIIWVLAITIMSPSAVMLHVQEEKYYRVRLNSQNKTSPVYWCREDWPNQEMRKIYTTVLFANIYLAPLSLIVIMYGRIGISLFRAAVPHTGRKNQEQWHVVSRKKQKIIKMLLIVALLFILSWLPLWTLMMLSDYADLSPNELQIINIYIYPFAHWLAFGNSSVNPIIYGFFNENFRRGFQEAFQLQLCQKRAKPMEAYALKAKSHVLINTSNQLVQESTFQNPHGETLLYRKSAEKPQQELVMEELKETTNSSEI
T1 sequence (Q9Y5X5 103-522 E289A): as the sequence (Q9Y5X5 103-522 L141A) above, with A39L, E187A counted along it
T8 sequence (Q9Y5X5 103-522 T322A): as the sequence (Q9Y5X5 103-522 L141A) above, with A39L, T220A counted along it
T10 sequence (Q9Y5X5 103-522 W393A): as the sequence (Q9Y5X5 103-522 L141A) above, with A39L, W291A counted along it
T3 sequence (Q9Y5X5 103-522 F425A): as the sequence (Q9Y5X5 103-522 L141A) above, with A39L, F323A counted along it
T12 sequence (Q9Y5X5 103-522 Y417A): as the sequence (Q9Y5X5 103-522 L141A) above, with A39L, Y315A counted along it
T2 sequence (Q9Y5X5 103-522 E310A): as the sequence (Q9Y5X5 103-522 L141A) above, with A39L, E208A counted along it
T9 sequence (Q9Y5X5 103-522 V305A): as the sequence (Q9Y5X5 103-522 L141A) above, with A39L, V203A counted along it
T7 sequence (Q9Y5X5 103-522 N413A): as the sequence (Q9Y5X5 103-522 L141A) above, with A39L, N311A counted along it
T4 sequence (Q9Y5X5 103-522 H421A): as the sequence (Q9Y5X5 103-522 L141A) above, with A39L, H319A counted along it
T5 sequence (Q9Y5X5 103-522 I414A): as the sequence (Q9Y5X5 103-522 L141A) above, with A39L, I312A counted along it
T11 sequence (Q9Y5X5 103-522 Y321A): as the sequence (Q9Y5X5 103-522 L141A) above, with A39L, Y219A counted along it

CC(C)C[C@H](NC(=O)[C@H](Cc1ccccc1)NC(=O)[C@H](C)NC(=O)[C@H](CCC(N)=O)NC(=O)[C@@H](N)CO)C(=O)N[C@@H](Cc1ccccc1)C(=O)N[C@@H](CCC(N)=O)C(=O)N1CCC[C@H]1C(=O)N[C@@H](CCC(N)=O)C(=O)N[C@@H](CCCNC(=N)N)C(=O)N[C@@H](Cc1ccccc1)C(N)=O [hNPSF]
Emax ([1]; HEK-293T): 75 ± 3% | EC50 [1]: 1 nM | Emax ([2]; HEK-293T): 29 ± 11% | EC50 [2]: 3980 nM | Emax ([3]; HEK-293T): 81 ± 3% | EC50 [3]: 398 nM | Emax ([4]; HEK-293T): 57 ± 2% | EC50 [4]: 63.1 nM | Emax ([5]; HEK-293T): 63 ± 3% | EC50 [5]: 10 nM | Emax ([6]; HEK-293T): 70 ± 3% | EC50 [6]: 10 nM | Emax ([7]; HEK-293T): 69 ± 8% | EC50 [7]: 1260 nM | Emax ([8]; HEK-293T): 70 ± 5% | EC50 [8]: 631 nM | Emax ([9]; HEK-293T): 78 ± 3% | EC50 [9]: 200 nM | Emax ([10]; HEK-293T): 80 ± 4% | EC50 [10]: 79.4 nM | Emax ([11]; HEK-293T): 72 ± 3% | EC50 [11]: 100 nM | Emax ([12]; HEK-293T): 77 ± 2% | EC50 [12]: 126 nM
